Laboratory results published in US20260034119A1, “5-METHOXY-N,N-[…][…], THEIR […], AND METHODS FOR TREATMENT OF NEUROLOGICAL, […], AND SUBSTANCE USE DISORDERS” (priority 2023, published 2026).
“Also recorded” adds a separate entry of the source. Like-named read-outs stand apart in the source and are kept apart here.

Key:
[1] = molecular target: 5-HT2B (Homo sapiens, UniProt P41595); assay: IP1 functional assay 5-HT2B; format: cell-based; conditions: for Emax: read-out: 5-HT2B (IP1) Emax (%5-HT)
Chain of 5-HT2B (P41595 whole entry, species assumed): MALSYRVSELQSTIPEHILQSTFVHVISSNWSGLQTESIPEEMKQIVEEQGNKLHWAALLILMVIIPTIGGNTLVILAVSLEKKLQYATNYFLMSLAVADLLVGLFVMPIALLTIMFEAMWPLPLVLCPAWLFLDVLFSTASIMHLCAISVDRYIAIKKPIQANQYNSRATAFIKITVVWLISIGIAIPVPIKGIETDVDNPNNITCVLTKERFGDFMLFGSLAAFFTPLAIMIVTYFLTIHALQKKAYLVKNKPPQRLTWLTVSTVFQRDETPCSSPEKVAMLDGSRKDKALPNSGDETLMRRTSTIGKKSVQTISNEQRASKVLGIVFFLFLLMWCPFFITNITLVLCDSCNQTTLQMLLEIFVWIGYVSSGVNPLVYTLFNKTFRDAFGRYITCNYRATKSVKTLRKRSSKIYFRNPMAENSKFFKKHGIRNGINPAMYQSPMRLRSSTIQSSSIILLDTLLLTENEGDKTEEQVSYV

[2] = tested on: C57BL/6J mice; assay: Head twitch response (HTR); format: in vivo, mouse; conditions: s.c., presence or absence of 5-HT1A antagonist WAY-100635
Description: The head-twitch response evaluation was performed by trained observers who were blinded to both drug and dose. Mice were habituated to the testing room 30 min. The body weight of each mouse was recorded. The HTR was defined as a rapid rotational movement of the head around the longitudinal axis of the animals' body. Mice were administered with vehicle or WAY100,635 (1 mg/kg or 2 mg/kg, sc). Fifteen minutes after the pretreatment injection mice were administered either 4F, 5-MeO-MET (0.1, 0.3, 1 or 3 mg/kg, sc) or 5-MeO-MET (0.3, 1, 3, and 10 mg/kg, sc) and placed in a novel observation cage. An overhead camera (GoPro HERO9 at a 120 Hz, San Mateo, CA, US) recorded their movements. Observers scored HTR from recorded footage for the first 10-min period.

[3] = tested on: mice; assay: Open field locomotor activity; format: in vivo, mouse; conditions: mice, s.c.
[4] = molecular target: T1, 5-HT2A (Homo sapiens, UniProt P28223); assay: cell-based; design: expressed in transfected cells; host or cells: HEK293-T; conditions: for Emax: read-out: 5-HT2A (IP1) Emax (%5-HT)
T1 sequence (P28223 whole entry): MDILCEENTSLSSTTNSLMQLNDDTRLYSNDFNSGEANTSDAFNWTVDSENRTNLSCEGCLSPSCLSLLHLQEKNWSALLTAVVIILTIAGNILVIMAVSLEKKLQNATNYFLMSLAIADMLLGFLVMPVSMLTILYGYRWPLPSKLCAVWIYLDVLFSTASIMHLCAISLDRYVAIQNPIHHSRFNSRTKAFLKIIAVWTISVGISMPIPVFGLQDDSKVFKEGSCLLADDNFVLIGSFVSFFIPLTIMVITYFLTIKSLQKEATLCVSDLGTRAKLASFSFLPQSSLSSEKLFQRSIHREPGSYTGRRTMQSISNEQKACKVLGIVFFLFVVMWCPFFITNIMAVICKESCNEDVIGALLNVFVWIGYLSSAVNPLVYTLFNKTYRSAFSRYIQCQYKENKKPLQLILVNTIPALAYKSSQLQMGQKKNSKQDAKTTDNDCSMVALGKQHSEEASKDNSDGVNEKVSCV

[5] = molecular target: T2, 5-HT1A (Homo sapiens, UniProt P08908); assay: BRET signaling assay: 5-HT1A-mediated activation of heterotrimeric Gi1 (TRUPATH, HEK293-T); conditions: Gi BRET EC50
[6] = Microsomal stability, human liver microsomes; format: in vitro ADME; conditions: versus the DMT analogs
Description: Microsomal incubations were carried out in 96-well plates in 5 aliquots of 30 μL each (one for each time point). Liver microsomal incubation medium comprised of phosphate buffer (100 mM, pH 7.4), MgCl2 (3.3 mM), NADPH (3 mM), glucose-6-phosphate (5.3 mM), glucose-6 phosphate dehydrogenase (0.67 units/ml) with 0.42 mg of liver microsomal protein per ml. In the control reactions the NADPH-cofactor system was substituted with phosphate buffer. Test compounds (2 μM, final solvent concentration 1.6%) were incubated with microsomes at 37° C., shaking at 100 rpm. Each reaction was performed in duplicates. Five time points over 90 minutes were analyzed. The reactions were stopped by adding 5 volumes of methanol containing internal standard to incubation aliquots, followed by protein sedimentation by centrifuging at 5500 rpm for 4 minutes. Supernatants were analyzed using the HPLC system coupled with tandem mass spectrometer. The elimination constant (kel), half-life (t1/2) and intrinsic clearance (Clint) were determined in plot of […] versus time, using linear regression analysis.

[7] = molecular target: T3, human 5-HT1A (Homo sapiens, UniProt P08908); assay: cell-based
T3 sequence (P08908 1-422): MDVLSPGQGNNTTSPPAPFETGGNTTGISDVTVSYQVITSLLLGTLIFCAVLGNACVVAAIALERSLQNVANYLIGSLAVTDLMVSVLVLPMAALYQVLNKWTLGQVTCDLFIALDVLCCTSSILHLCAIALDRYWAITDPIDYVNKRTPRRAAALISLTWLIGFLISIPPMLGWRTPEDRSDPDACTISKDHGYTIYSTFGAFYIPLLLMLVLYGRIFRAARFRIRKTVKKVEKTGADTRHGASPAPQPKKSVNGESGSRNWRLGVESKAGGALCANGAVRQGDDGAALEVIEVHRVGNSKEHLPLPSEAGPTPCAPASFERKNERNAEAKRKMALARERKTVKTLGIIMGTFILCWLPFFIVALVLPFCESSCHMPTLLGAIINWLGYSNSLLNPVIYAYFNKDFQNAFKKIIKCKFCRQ

[8] = molecular target: T2, 5-HT1A; assay: cell-based
[9] = molecular target: T1, 5-HT2A; assay: cell-based
[10] = molecular target: T4, MAO-A (Homo sapiens, UniProt P21397); assay: MAO-A activity (metabolism of compound); conditions: versus the DMT analogs
T4 sequence (P21397 1-527): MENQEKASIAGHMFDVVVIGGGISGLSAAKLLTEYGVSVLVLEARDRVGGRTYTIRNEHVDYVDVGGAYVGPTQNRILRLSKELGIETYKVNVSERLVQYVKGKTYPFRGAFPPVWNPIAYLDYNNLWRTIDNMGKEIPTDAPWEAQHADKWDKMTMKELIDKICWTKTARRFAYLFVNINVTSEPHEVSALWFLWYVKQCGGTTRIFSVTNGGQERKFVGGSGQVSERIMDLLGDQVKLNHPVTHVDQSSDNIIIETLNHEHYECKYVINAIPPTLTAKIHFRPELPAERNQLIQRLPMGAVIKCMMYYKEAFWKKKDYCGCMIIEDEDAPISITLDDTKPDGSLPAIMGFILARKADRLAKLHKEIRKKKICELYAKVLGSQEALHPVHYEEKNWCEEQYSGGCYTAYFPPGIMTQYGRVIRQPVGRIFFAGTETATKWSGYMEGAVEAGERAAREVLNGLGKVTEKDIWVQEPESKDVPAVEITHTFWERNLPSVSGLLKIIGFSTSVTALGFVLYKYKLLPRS

[11] = tested on: C57BL6J mice; assay: Catalepsy bar test (tetrabenazine / haloperidol induced); format: in vivo, mouse; conditions: 10.0 & 20.0 mg/kg s.c., 60 min post inj., vs vehicle
Text: Catalepsy, characterized by muscular rigidity and fixity of posture irrespective of external stimuli (Mann et al. 2015, Karuppagounder et al 2012) is a recognized model for Parkinson's disease (PD) in rodents, induced by dopamine (DA) antagonists such as haloperidol, and DA depleting agents like tetrabenazine (TBZ) (Jastrzębska-Więsek et al. 2022, Bhangale et al. 2016). TBZ, a reversible inhibitor of the type-2 vesicular monoamine transporter, primarily affects dopamine neurons by blocking vesicular storage and depleting monoamines (Jastrzębska-Więsek et al. 2022). In contrast, Haloperidol, a nonselective D2 dopamine antagonist, […] (Bhangale et al. 2016). C57BL6J mice are administered TBZ/Haloperidol at t=0 min and 4-F, 5-MeO-PyrT at t=30 min via subcutaneous injection, with Haloperidol (0.5 mg/kg) given intraperitoneal injection. Mice are tested individually at t=60 min, and catalepsy is defined by the absence of movement for 30-60 seconds with a cutoff time set to 60 second. […] The automated Maze Engineers Catalepsy Bar test, featuring sensors to detect forelimb removal from the bar, facilitates automatic recording of forelimb movement duration from the bar to the ground.

[12] = tested on: C57BL/6J mice; assay: Sucrose preference test after chronic social defeat stress; format: in vivo, mouse; conditions: stressed mice, relative to vehicle-treated animals
Text: The sucrose preference test is a volitional two-bottle choice procedure in which mice are given the choice between consuming water and a 1% sucrose solution. This paradigm has been used extensively to assess the effects of stress-induced anhedonia. On day 10 of CSDS mice were individually housed and habituated to two bottles containing just water. Twenty-four hours later, following the SI test, one bottle was replaced with a 1% sucrose solution (w/v) made with water from the animal vivarium. Mice had ad libitum overnight access to both bottles and preference for sucrose over water was calculated as follows: [sucrose/(sucrose+water)*100]. Data were averaged from two independent experiments. A total of 27 mice were administered vehicle (9 control, 18 stress), 27 received 4-F, 5-MeO-PyrT (9 control, 18 stress), 15 received WAY-100635 (5 control, 10 stress), and 15 received 4-F, 5-MeO-PyrT+WAY-100635 (5 control, 10 stress). More animals were used for the stressed groups due to the inherent resilience of mice to social defeat stress (Krishnan et al. 2007). Analysis of different treatment conditions of control and stressed animals was done in GraphPad Prism using two-way ANOVA.

CCN(C)CCc1c[nH]c2ccc(OC)cc12 [Compound 5-MeO-MET]
EC50 ([1]; Table 3, read-out: 5-HT2B (IP1) EC50): 130 nM
Emax ([1]; Table 3): 62%
head-twitch response (HTR), measure of 5-HT2A-mediated hallucinogenic activity [2]: robust HTR in the presence of WAY100; also recorded: robust dose-dependent activity
locomotor suppression in the open field (OF) test [3]: dose-dependent locomotor suppression
EC50 [4]: 96 nM
Emax [4]: 107%
EC50 [5]: 25.9 nM

CCCN(CCC)CCc1c[nH]c2ccc(OC)c(F)c12 [Compound 30, N-(2-(4-fluoro-5-methoxy-1H-indol-3-yl)ethyl)-N-propylpropan-1-amine]
EC50 [1]: 99 nM
Emax ([1]; Table 3): 86%
microsomal stability in human microsomes [6]: greater stability in human microsomes versus the DMT analogs
EC50 [7]: 1.31 nM
EC50 [8]: 3.7 nM
EC50 [9]: 142 nM
MAO A metabolism [10]: markedly slower MAO A metabolism versus the DMT analogs
EC50 [4]: 180 nM
Emax [4]: 100%

COc1cc2c(cc1OC)C1CC(=O)C(CC(C)C)CN1CC2 (stereo not drawn) [Tetrabenazine]
induction of catalepsy [11]: significantly induces catalepsy

COc1ccccc1N1CCN(CCN(C(=O)C2CCCCC2)c2ccccn2)CC1 [WAY-100635, reference compound]
sucrose preference [12]: not statistically significant
